Measurements published in BindingDB's records for doi:10.1016/j.bioorg.2014.02.002 (Swami Ramanand Teerth Marathwada University, 2014).
Where “and” joins values, the source holds several entries; their conditions need not be identical. Identical values can stand only once.

target: Aldose reductase (Capra hircus); assay: The reaction mixture contained 1 mL of 1 M potassium phosphate buffer (pH 6.2), 0.4 mM lithium sulfate and 5 µM 2-mercaptoethanol, 10 µM DL-glyceraldehyde, […], and crude enzyme. The reaction mixture was incubated at 37 °C for 10 min. The reaction was initiated by the addition of NADPH and the decrease in absorbance was measured a

In the case of `NC(=S)N1C=C(N)C(=Cc2ccc(F)cc2)C1=O` [(3Z)‐4‐amino‐3‐[(4‐methoxyphenyl)methylidene]‐2‐ oxopyrrole‐1‐carbothioamide (2c)], the IC50 is reported as 11.9 µM and 12.8 µM.

`COc1ccc(-c2cc(C=C3C(=O)N(C(N)=S)N=C3N)n(-c3ccccc3)n2)cc1` [(4Z)‐3‐amino‐4‐{[5‐(4‐methoxyphenyl)‐2‐ phenylpyrazol‐3‐yl]methylidene}‐5‐oxopyrazole‐1‐ carbothioamide (2d)] and `NC(=S)N1N=C(N)C(=Cc2cn(-c3ccccc3)nc2-c2ccc(Cl)cc2)C1=O` [(4E)‐3‐amino‐4‐{[3‐(4‐chlorophenyl)‐1‐ phenylpyrazol‐4‐yl]methylidene}‐5‐oxopyrazole‐1‐ carbothioamide (2e)] are within 1.5-fold of each other in IC50: 8.1 µM for the first, 6.3 µM for the second.

In the case of `NC1=NNC(=O)C1=Cc1cn(-c2ccccc2)nc1-c1ccc(Cl)cc1` [(4E)‐5‐amino‐4‐{[3‐(4‐chlorophenyl)‐1‐ phenylpyrazol‐4‐yl]methylidene}‐2H‐pyrazol‐3‐one (1e)], the IC50 is reported as 9.2 µM.
